In ChEMBL document CHEMBL3885881, “DrugMatrix”:

Species: Rattus norvegicus
Test: DrugMatrix - Regimen: Daily Repeat
Type: toxicity, organism-based, Sprague-Dawley
Design: regimen Daily Repeat, gender Male, age 6-8 weeks
Conditions: in vivo, po, route oral GAVAGE, vehicle .5 % CMC; for ABSOLUTE BASOPHIL / ABSOLUTE EOSINOPHIL / ABSOLUTE LYMPHOCYTE / ABSOLUTE MONOCYTE / ABSOLUTE SEGMENTED NEUTROPHIL / BASOPHIL / EOSINOPHIL / ERYTHROCYTE COUNT / HEMATOCRIT / HEMOGLOBIN / LEUKOCYTE COUNT / LYMPHOCYTE / MEAN CORPUSCULAR HEMOGLOBIN / MEAN CORPUSCULAR HEMOGLOBIN CONCENTRATION / MEAN CORPUSCULAR VOLUME / MONOCYTE / NEUTROPHIL / NUCLEATED RED BLOOD CELLS / PLATELET COUNT: tissue Blood; for ALANINE AMINOTRANSFERASE / ALBUMIN / ALKALINE PHOSPHATASE / ASPARTATE AMINOTRANSFERASE / BLOOD UREA NITROGEN / CARBON DIOXIDE / CHLORIDE / CHOLESTEROL / CREATINE PHOSPHOKINASE / CREATININE / GLUCOSE / LACTATE DEHYDROGENASE / LIPASE / PHOSPHORUS / POTASSIUM / SODIUM / TOTAL BILIRUBIN / TOTAL PROTEIN / URIC ACID: tissue Plasma
[1] = 0 mg/kg, 72 h, dose level Control, time 3 day
[2] = 0 mg/kg, 120 h, dose level Control, time 5 day
[3] = 75 mg/kg, 72 h, dose level High, time 3 day

Cc1ccc(/N=C/N(C)/C=N/c2ccc(C)cc2C)c(C)c1 [AMITRAZ]
ABSOLUTE BASOPHIL [1]: 0 CELLS/uL
ABSOLUTE EOSINOPHIL [1]: 0 CELLS/uL
ABSOLUTE LYMPHOCYTE [1]: 12269.67 CELLS/uL
ABSOLUTE MONOCYTE [1]: 160.33 CELLS/uL
ABSOLUTE SEGMENTED NEUTROPHIL [1]: 970 CELLS/uL
BASOPHIL [1]: 0%
EOSINOPHIL [1]: 0%
ERYTHROCYTE COUNT [1]: 5.76 x10E6/uL
HEMATOCRIT [1]: 36.57%
HEMOGLOBIN [1]: 14.22 G/DL
LEUKOCYTE COUNT [1]: 13.4 x10E3/uL
LYMPHOCYTE [1]: 91.67%
MEAN CORPUSCULAR HEMOGLOBIN [1]: 24.67 pg
MEAN CORPUSCULAR HEMOGLOBIN CONCENTRATION [1]: 38.85 G/DL
MEAN CORPUSCULAR VOLUME [1]: 63.52 fL
MONOCYTE [1]: 1.17%
NEUTROPHIL [1]: 7.17%
NUCLEATED RED BLOOD CELLS [1]: 0.33 /100WBC
PLATELET COUNT [1]: 1250.83 x10E3/uL
ALANINE AMINOTRANSFERASE [1]: 49.17 u/L
ALBUMIN [1]: 4.33 G/DL
ALKALINE PHOSPHATASE [1]: 378.5 u/L
ASPARTATE AMINOTRANSFERASE [1]: 82.17 u/L
BLOOD UREA NITROGEN [1]: 15 mg/dL
CARBON DIOXIDE [1]: 34.33 mmol/L
CHLORIDE [1]: 99.17 MEQ/L
CHOLESTEROL [1]: 71.17 mg/dL
CREATINE PHOSPHOKINASE [1]: 258.67 u/L
CREATININE [1]: 0.18 mg/dL
GLUCOSE [1]: 142.67 mg/dL
LACTATE DEHYDROGENASE [1]: 154.33 u/L
LIPASE [1]: 9 u/L
PHOSPHORUS [1]: 11.67 mg/dL
POTASSIUM [1]: 7.13 MEQ/L
SODIUM [1]: 142.22 MEQ/L
TOTAL BILIRUBIN [1]: 0.18 mg/dL
TOTAL PROTEIN [1]: 5.77 G/DL
URIC ACID [1]: 1.55 mg/dL
ABSOLUTE BASOPHIL [2]: 0 CELLS/uL
ABSOLUTE EOSINOPHIL [2]: 23.33 CELLS/uL
ABSOLUTE LYMPHOCYTE [2]: 14943.67 CELLS/uL
ABSOLUTE MONOCYTE [2]: 32 CELLS/uL
ABSOLUTE SEGMENTED NEUTROPHIL [2]: 1084.33 CELLS/uL
BASOPHIL [2]: 0%
EOSINOPHIL [2]: 0.17%
ERYTHROCYTE COUNT [2]: 5.71 x10E6/uL
HEMATOCRIT [2]: 35.28%
HEMOGLOBIN [2]: 14.27 G/DL
LEUKOCYTE COUNT [2]: 16.08 x10E3/uL
LYMPHOCYTE [2]: 93%
MEAN CORPUSCULAR HEMOGLOBIN [2]: 25.02 pg
MEAN CORPUSCULAR HEMOGLOBIN CONCENTRATION [2]: 40.43 G/DL
MEAN CORPUSCULAR VOLUME [2]: 61.82 fL
MONOCYTE [2]: 0.17%
NEUTROPHIL [2]: 6.67%
NUCLEATED RED BLOOD CELLS [2]: 0.33 /100WBC
PLATELET COUNT [2]: 1274 x10E3/uL
ALANINE AMINOTRANSFERASE [2]: 54.17 u/L
ALBUMIN [2]: 4.22 G/DL
ALKALINE PHOSPHATASE [2]: 373.17 u/L
ASPARTATE AMINOTRANSFERASE [2]: 81.83 u/L
BLOOD UREA NITROGEN [2]: 16.67 mg/dL
CARBON DIOXIDE [2]: 30.33 mmol/L
CHLORIDE [2]: 99 MEQ/L
CHOLESTEROL [2]: 71 mg/dL
CREATINE PHOSPHOKINASE [2]: 273.5 u/L
CREATININE [2]: 0.22 mg/dL
GLUCOSE [2]: 141.83 mg/dL
LACTATE DEHYDROGENASE [2]: 153.67 u/L
LIPASE [2]: 10.33 u/L
PHOSPHORUS [2]: 11.38 mg/dL
POTASSIUM [2]: 7.08 MEQ/L
SODIUM [2]: 142.75 MEQ/L
TOTAL BILIRUBIN [2]: 0.18 mg/dL
TOTAL PROTEIN [2]: 6.1 G/DL
URIC ACID [2]: 1.67 mg/dL
ABSOLUTE BASOPHIL [3]: 0 CELLS/uL
ABSOLUTE EOSINOPHIL [3]: 0 CELLS/uL
ABSOLUTE LYMPHOCYTE [3]: 12442 CELLS/uL
ABSOLUTE MONOCYTE [3]: 223 CELLS/uL
ABSOLUTE SEGMENTED NEUTROPHIL [3]: 868.33 CELLS/uL
BASOPHIL [3]: 0%
EOSINOPHIL [3]: 0%
ERYTHROCYTE COUNT [3]: 6.64 x10E6/uL
HEMATOCRIT [3]: 42%
HEMOGLOBIN [3]: 16.13 G/DL
LEUKOCYTE COUNT [3]: 13.53 x10E3/uL
LYMPHOCYTE [3]: 92.33%
MEAN CORPUSCULAR HEMOGLOBIN [3]: 24.27 pg
MEAN CORPUSCULAR HEMOGLOBIN CONCENTRATION [3]: 38.4 G/DL
MEAN CORPUSCULAR VOLUME [3]: 63.23 fL
MONOCYTE [3]: 1.67%
NEUTROPHIL [3]: 6%
NUCLEATED RED BLOOD CELLS [3]: 0 /100WBC
PLATELET COUNT [3]: 1347.33 x10E3/uL
ALANINE AMINOTRANSFERASE [3]: 35.67 u/L
ALBUMIN [3]: 3.93 G/DL
ALKALINE PHOSPHATASE [3]: 354 u/L
ASPARTATE AMINOTRANSFERASE [3]: 84.33 u/L
BLOOD UREA NITROGEN [3]: 20 mg/dL
CARBON DIOXIDE [3]: 34.67 mmol/L
CHLORIDE [3]: 101.67 MEQ/L
CHOLESTEROL [3]: 49 mg/dL
CREATINE PHOSPHOKINASE [3]: 285.33 u/L
CREATININE [3]: 0.3 mg/dL
GLUCOSE [3]: 211 mg/dL
LACTATE DEHYDROGENASE [3]: 230 u/L
LIPASE [3]: 8.33 u/L
PHOSPHORUS [3]: 11.13 mg/dL
POTASSIUM [3]: 6.26 MEQ/L
SODIUM [3]: 146.5 MEQ/L
TOTAL BILIRUBIN [3]: 0.23 mg/dL
TOTAL PROTEIN [3]: 5.2 G/DL
URIC ACID [3]: 1.83 mg/dL
